Source: US7189859B2, “Radiolabelled phenylethyl imidazole carboxylic acid ester derivatives” (priority 2003, dated 2007)
Where two headings read alike, the source gives them in different places.

Columns and labels:
[1] = target: T1, cytochrome P-45011β enzyme system (Rattus norvegicus, UniProt P15393); test: Displacement of [^131I]MTO binding
T1 construct: Whole adrenals from adult male Wistar rats were homogenized; from tissue; host or cells: whole adrenals of adult male Wistar rats, washed membrane pellet
T1 sequence (P15393 25-499): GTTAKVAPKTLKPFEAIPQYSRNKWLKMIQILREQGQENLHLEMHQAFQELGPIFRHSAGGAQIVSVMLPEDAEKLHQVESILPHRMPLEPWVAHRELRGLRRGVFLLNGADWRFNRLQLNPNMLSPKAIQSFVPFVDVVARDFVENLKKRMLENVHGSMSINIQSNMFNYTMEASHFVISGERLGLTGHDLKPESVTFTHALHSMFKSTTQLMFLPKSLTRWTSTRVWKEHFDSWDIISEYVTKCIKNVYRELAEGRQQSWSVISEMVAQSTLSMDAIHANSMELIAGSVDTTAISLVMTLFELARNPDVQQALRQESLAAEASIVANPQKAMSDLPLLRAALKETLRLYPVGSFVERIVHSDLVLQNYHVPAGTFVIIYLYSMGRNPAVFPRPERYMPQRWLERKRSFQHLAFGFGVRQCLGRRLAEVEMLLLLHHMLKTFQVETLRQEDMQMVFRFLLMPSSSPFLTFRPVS
Procedure: Test compounds were incubated at 0.01–100 nM concentrations. Non-specific binding was determined with etomidate (10 μM). […] The filters containing membranes with bound radioligand were measured in a gamma-spectrometer.
IC50 values (the molar concentration of compound necessary to inhibit binding by 50%) were determined for each test compound by non-linear, least squares regression analysis, using an iterative curve fitting routine.

[2] = system: steroid 11β-hydroxylation; conditions: human adrenocortical tissue slices; cited from earlier work
[3] = system: adrenals; test: In vivo evaluation of ^131I-MTO (organ distribution after tail vein injection); conditions: rats
Procedure: Method: ^131I-MTO was used with a radiochemical purity >99% and a specific activity of 57 GBq/μmol. The radiotracer (0.5–1.1 MBq; […]) was injected into the tail vein of rats (female, 180–220 gram). Groups of four rats were sacrifized at specified times up to 24 hours post injection. The organs were excised and weighed, the radioactivity was measured at constant geometry using a gamma-spectrometer with a Nal(TI)-crystal. The data were expressed as percent of injected dose (ID) per organ and as percent of ID per gram tissue.

[4] = target: T2, rat adrenal membranes (cytochrome P-450 β-hydroxylase) (Rattus norvegicus, UniProt P15393); test: [^131I]MTO binding to rat adrenal membranes (association, dissociation, saturation); conditions: for observable association rate constant v: data pooled from 7 experiments
T2 sequence (P15393 25-499): T1 sequence (P15393 25-499)
Procedure: Whole adrenals from adult male Wistar rats were homogenized in 10 mM K2HPO4/10 mM HEPES (pH 7.1) with a glass/teflon piston (Potter-type). The homogenate was centrifuged at 35.000×g for 10 min, the pellet was resuspended in fresh buffer and centrifuged again. Membranes were washed 2 more times and stored as aliquots at −80° C.
After incubation, membranes with bound radioligand were isolated by filtration through Whatman GF/B glass fiber filters (presoaked in buffer), followed by 2×4 mL washings with buffer, then filters were measured in a gamma-spectrometer.
For dissociation experiments, membranes were fully equilibrated with 2 nM radioligand, and the dissociation was initiated by the addition of excess unlabelled 4-iodo-MTO and stepwise filtration at 15 sec intervals.
For saturation studies 2–100 nM 4-iodo-MTO carrier was used. See summary in FIG. 1. […] Incubation for 30 minutes using 10 mM K2HPO4/10 mM HEPES, 150 mM NaCl (pH 7.1).

[5] = system: lesions of adrenocortical origin; conditions: clinical; cited from earlier work
[6] = read-out: IC50 (inhibition of [^131I]MTO binding), rat adrenal membranes

Question: Which IC50 [1] does the source give for `CC(C)(C(=O)c1cccnc1)c1cccnc1` [Metyrapone] here?
Answer: The IC50 was 1200 nM.

Question: Which results are given for `COC(=O)c1cncn1C(C)c1ccccc1` (stereo not drawn) [metomidate]?
Answer: inhibition of steroid 11β-hydroxylation [2]: equally potent inhibitor; IC50 [1]: 3.7 nM

Question: Which results are given for `CCOC(=O)c1cncn1[C@H](C)c1ccccc1` [etomidate]?
Answer: inhibition of steroid 11β-hydroxylation [2]: block the conversion of 11-deoxycortisol to cortisol and of 11-deoxycorticosterone (DOC) to corticosterone and aldosterone; IC50 [1]: 1.1 nM

Question: Which IC50 [1] does the source give for `COC(=O)c1cncn1[C@H](C)c1ccc(I)cc1` [Example 4-iodo-MTO, (R)-methyl 3-[1-(4-iodophenyl)ethyl]-3H-imidazole-4-carboxylate] here?
Answer: The IC50 was 9 nM.

Question: With `COC(=O)c1cncn1[C@H](C)c1ccc([131I])cc1` [[^131I]MTO, (R)-3-[1-(4-[^131I]iodophenyl)ethyl]-3H-imidazole-4-carboxylic acid methyl ester] as the compound, how does the “duration of radioactivity plateau in the adrenals” value ([3]; intravenous (tail vein)) read?
Answer: Its value is 2 h.

Question: And the route of elimination ([3]; intravenous (tail vein))?
Answer: The route of elimination was “eliminated both by hepatobiliary and by renal excretion”.

Question: And the “specific uptake in the adrenals” value ([3]; intravenous (tail vein))?
Answer: Its value is “approximately 10 % ID/g tissue”.

Question: And the “time post injection up to which renal activity is increasing” value ([3]; renal activity attributed to ^131I-ETO-acid)?
Answer: Its value is “up to 4 hours”.

Question: What about the “observable association rate constant v” value ([4]; ligand concentration 2 nM 4-iodo-MTO) of the same compound?
Answer: Its value is 0.65 min⁻¹.

Question: What about the “observable association rate constant v” value ([4]; ligand concentration 4 nM 4-iodo-MTO) of the same compound?
Answer: The value was 1.23 min⁻¹.

Question: What about the “observable association rate constant v” value ([4]; ligand concentration 11 nM 4-iodo-MTO) of the same compound?
Answer: Its value is 1.34 min⁻¹.

Question: Which IC50 [1, 6] does the source give for `C[C@H](c1ccccc1)n1cncc1C(=O)OCCF` [FETO] here?
Answer: Its IC50 is 3 nM.

Question: With `CC(c1ccccc1)n1cncc1C(=O)O` (stereo not drawn) [ETO-acid] as the compound, how does the IC50 [1, 6] read?
Answer: Its IC50 is 123000 nM.

Question: Which Kd ([4]; saturation analysis, 2–100 nM 4-iodo-MTO carrier, 30 minutes incubation, pH 7.1, (15)) does the source give for `COC(=O)c1cncn1[C@H](C)c1ccc(I)cc1` [[^131I]MTO, (R)-3-[1-(4-[^131I]iodophenyl)ethyl]-3H-imidazole-4-carboxylic acid methyl ester] here?
Answer: The Kd was 7.4 ± 2.8 nM.

Question: Which “uptake in lesions of adrenocortical origin, including adenomas” value [5] does the source give for `COC(=O)c1cncn1C(C)c1ccccc1` (stereo not drawn) [[O-methyl-^11C]metomidate] here?
Answer: The value was “high uptake”.

Question: What about the “uptake in lesions of non-adrenocortical origin” value [5] of the same compound?
Answer: Its value is “very low uptake”.
